Here are results for three molecules from PMC9227096, “Design, Synthesis, and In Vitro, In Silico and In Cellulo Evaluation of New Pyrimidine and Pyridine Amide and Carbamate Derivatives as Multi-Functional Cholinesterase Inhibitors” (Pharmaceuticals, 2022).

One data set has as its target T1, Aβ42 peptide (Homo sapiens, UniProt P05067).
T1 construct: expressed in transfected cells; host or cells: E. coli BL21 (DE3), pET28a vector
Briefly: Inhibition of Aβ42 aggregation in intact E. coli cells, thioflavin-S staining. Type of data set: cell-based, Escherichia coli. The following applies: [I] = 100 µM, E. coli cells overexpressing Aβ42. Here is the method: (§1) For compounds 12, 14 and 18, the inhibitory activity against Aβ42 and tau aggregation was evaluated. The anti-aggregating effect of tested compounds was monitored by a cell-based assay in intact Escherichia coli cells that overexpress either Aβ42 peptide or tau protein, which, upon expression, form insoluble inclusion bodies that were stained with thioflavin-S [42]. The percentages of inhibition towards Aβ42 and tau aggregation were determined at an inhibitor concentration of 100 µM and the obtained results are reported in Table 6. In general, these compounds show a weak anti-aggregating activity; among these, the pyridine carbamate 18 is the best inhibitor of aggregation of both Aβ42 and tau.
E. coli competent cells BL21 (DE3) were transformed with the pET28a vector (Novagen, Inc., Madison, WI, USA) carrying the DNA sequence of Aβ42. Because of the addition of the initiation codon ATG in front of both genes, the overexpressed peptide contains an additional methionine residue at its N terminus. For overnight culture preparation, an amount of 10 mL of the M9 minimal medium containing 50 μg·mL^−1 of kanamycin was inoculated with a colony of BL21 (DE3) bearing the plasmid to be expressed at 37 °C. […]
(§2) Th-S (T1892) and other chemical reagents were purchased from Sigma (St. Louis, MO, USA). […] Th-S fluorescence and absorbance were tracked using a DTX 800 plate reader Multimode Detector equipped with a Multimode Analysis Software (Beckman-Coulter, Indianapolis, IN, USA). […] A filter of 535/25 nm was also used for the absorbance determination. To normalize the Th-S fluorescence as a function of the bacterial concentration, OD600 was obtained using a Shimadzu UV-2401 PC UV–Vis spectrophotometer (Shimadzu, Japan). Note that the fluorescence normalisation was carried out considering 100% of the Th-S fluorescence of the bacterial cells expressing the peptide or protein in the absence of the drug and 0% of the Th-S fluorescence of the bacterial cells not expressing the peptide or protein. […]

For another data set, the target named is T2, tau protein (Homo sapiens, UniProt P10636).
T2 construct: expressed in transfected cells; host or cells: E. coli BL21 (DE3) with pTARA (T7 RNA polymerase under PBAD) and pRKT42
Description: Inhibition of tau aggregation in intact E. coli cells, thioflavin-S staining. The class given is cell-based, Escherichia coli. The following applies: [I] = 100 µM, E. coli cells overexpressing tau. The protocol:
as §1
E. coli BL21 (DE3) competent cells were transformed with pTARA containing the RNA-polymerase gene of T7 phage (T7RP), under the control of the promoter PBAD. E. coli BL21 (DE3), with pTARA competent cells, were transformed with the pRKT42 vector encoding four repeats of the tau protein in two inserts. For overnight culture preparation, 10 mL of the M9 medium containing 0.5% of glucose, 50 μg·mL^−1 of ampicillin, and 12.5 μg·mL^−1 of chloramphenicol was inoculated with a colony of BL21 (DE3) bearing the plasmids to be expressed at 37 °C. […]
as §2

Another data set can be described thus: MTT cell viability assay. The class given is cell-based. The following applies: human, U-87 MG glioblastoma astrocytoma cells, U-87 MG cells; for viability at 24 h, 10 µM: 10 µM (12 and 18: up to 10 µM). Here is the method: Compounds 12, 14 and 18 were tested to evaluate the cytotoxic effects on U-87 MG Cell Line from human brain (glioblastoma astrocytoma) at concentration ranging from 1 to 50 µM.
The compounds 12, 14 and 18 were evaluated for cell viability effects using the MTT assay. Briefly, U-87 MG Cell Line from human brain (glioblastoma astrocytoma) (ATCC, Manassas, VA, USA) were seeded into 96-well microtiter plates (NunclonTM, Nunc, Germany) at a density of 1.5 × 10^4 cells/well. […]. After an incubation time of 24 h, the medium was replaced by a new, fresh medium containing 0.5 mg/mL MTT (Sigma, Deisenhofen, Germany). After 2 h at 37 °C in 5%, CO2 unreacted dye was removed and the cells were dissolved by DMSO (Merck, Darmstadt, Germany). Absorbance was read at 570 nm by a microtiter spectrophotometer plate reader. The data were expressed as absorbance relative to untreated cells in the same experiment and standardized to 100%. All data points were performed in triplicate and at least three independent experiments.

Each structure is given as a SMILES string.

T2 sequence (P10636 1-441 isoform P10636-8): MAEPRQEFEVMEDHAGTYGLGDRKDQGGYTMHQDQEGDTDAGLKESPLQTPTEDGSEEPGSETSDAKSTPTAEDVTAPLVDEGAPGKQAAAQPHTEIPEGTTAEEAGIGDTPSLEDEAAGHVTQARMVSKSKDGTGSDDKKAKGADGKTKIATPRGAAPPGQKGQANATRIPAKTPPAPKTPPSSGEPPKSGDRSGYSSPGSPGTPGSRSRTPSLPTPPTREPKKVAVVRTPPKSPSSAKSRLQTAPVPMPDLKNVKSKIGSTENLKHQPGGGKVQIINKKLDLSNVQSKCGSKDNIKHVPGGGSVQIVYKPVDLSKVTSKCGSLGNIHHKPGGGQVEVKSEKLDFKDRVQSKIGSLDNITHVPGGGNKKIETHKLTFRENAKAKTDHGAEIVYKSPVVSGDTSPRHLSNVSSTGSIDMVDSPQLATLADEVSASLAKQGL
T1 sequence (P05067 672-713 limits assumed): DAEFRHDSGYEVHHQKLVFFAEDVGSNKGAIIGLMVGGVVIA

For orientation: inhibition means the share of the control response that was lost under treatment. The term viability denotes a per cent measure of how many cells are alive, often set against a control. For the molecule `O=C(NCCCCCCNc1ccccn1)c1ccccc1` [Compound 12, N-(6-(pyridin-2-ylamino)hexyl)benzamide], at Aβ42 peptide, testing at 100 µM gave an inhibition of 11.9%. On tau protein, the inhibition at 100 µM was found to be 11%. In “MTT cell viability assay”, the viability at 24 h, 10 µM is over 90% and the viability at 24 h, 50 µM is over 35%.

On to `O=C(Cc1ccc(Oc2ccccc2)cc1)NCCCCCCNc1ccccn1` [Compound 14, 2-(4-phenoxyphenyl)-N-(6-(pyridin-2-ylamino)hexyl)acetamide], for which the inhibition at 100 µM on Aβ42 peptide worked out at 13.3%; against tau protein, 10.9%. This molecule also came in with a viability at 24 h, 10 µM in the data set “MTT cell viability assay” of over 65%. The same molecule yielded a viability at 24 h, 50 µM in “MTT cell viability assay” of over 30%.

`O=C(NCCCCCCNc1ccccn1)Oc1ccccc1` [Compound 18, Phenyl (6-(pyridin-2-ylamino)hexyl)carbamate] returned an inhibition at 100 µM on Aβ42 peptide of 23.1%. This molecule registered an inhibition at 100 µM against tau protein of 15.7%. For the same molecule, in the data set “MTT cell viability assay”, the viability at 24 h, 10 µM was over 90% and the viability at 24 h, 50 µM is over 35%.
